Reference: ChEMBL document CHEMBL5108020, “Design and synthesis of novel benzimidazole derivatives as potential Pseudomonas aeruginosa anti-biofilm agents inhibiting LasR: Evidence from comprehensive molecular dynamics simulation and in vitro investigation” (Eur J Med Chem, 2022)
Each block holds one compound with its values, some of them ahead of it.

Key:
[1] = molecular target: T1, Transcriptional activator protein LasR (Pseudomonas aeruginosa (strain ATCC 15692 / PAO1 / 1C / PRS 101 / LMG12228), UniProt P25084); experiment: Inhibition of Pseudomonas aeruginosa PAO-JG21 LasR co-transfected with LVAgfp reporter assessed as inhibition of GFP production by fluorescence based analysis
T1 sequence (P25084 whole entry): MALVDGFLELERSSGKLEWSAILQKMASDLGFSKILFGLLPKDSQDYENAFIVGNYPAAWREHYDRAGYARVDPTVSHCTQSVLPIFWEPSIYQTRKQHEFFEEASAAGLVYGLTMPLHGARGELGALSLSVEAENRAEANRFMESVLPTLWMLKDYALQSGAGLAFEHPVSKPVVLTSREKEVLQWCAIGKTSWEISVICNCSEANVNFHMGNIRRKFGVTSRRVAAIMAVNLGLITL

[2] = molecular target: T1, Transcriptional activator protein LasR; experiment: Inhibition of Pseudomonas aeruginosa PAO1 LasR
[3] = molecular target: T1, Transcriptional activator protein LasR; experiment: Inhibition of Pseudomonas aeruginosa PAO-JP2 LasR co-transfected with LVAgfp reporter assessed as inhibition of GFP production by fluorescence based analysis
[4] = molecular target: T2, HTH-type quorum-sensing regulator RhlR (Pseudomonas aeruginosa (strain ATCC 15692 / PAO1 / 1C / PRS 101 / LMG12228), UniProt P54292); experiment: Inhibition of Pseudomonas aeruginosa PAO1 RhlR
T2 sequence (P54292 whole entry): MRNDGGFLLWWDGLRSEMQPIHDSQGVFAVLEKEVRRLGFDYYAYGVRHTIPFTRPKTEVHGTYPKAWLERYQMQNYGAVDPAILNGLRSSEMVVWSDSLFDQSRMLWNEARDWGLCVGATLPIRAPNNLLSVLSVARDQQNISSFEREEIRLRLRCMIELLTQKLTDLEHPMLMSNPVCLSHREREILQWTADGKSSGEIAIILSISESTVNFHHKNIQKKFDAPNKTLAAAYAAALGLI

[5] = molecular target: T3, Transcriptional activator protein LasR (Pseudomonas aeruginosa (strain ATCC 15692 / PAO1 / 1C / PRS 101 / LMG12228)) (UniProt P25084); experiment: Inhibition of Pseudomonas aeruginosa MH602 LasR co-transfected with ASVgfp reporter assessed as inhibition of GFP production at 62.5 uM by fluorescence based analysis
T3 sequence (whole entry): T1 sequence (P25084 whole entry)

[6] = molecular target: T3, Transcriptional activator protein LasR (Pseudomonas aeruginosa (strain ATCC 15692 / PAO1 / 1C / PRS 101 / LMG12228)); experiment: Inhibition of Pseudomonas aeruginosa MH602 LasR co-transfected with ASVgfp reporter assessed as inhibition of GFP production at 125 uM by fluorescence based analysis
[7] = molecular target: T3, Transcriptional activator protein LasR (Pseudomonas aeruginosa (strain ATCC 15692 / PAO1 / 1C / PRS 101 / LMG12228)); experiment: Inhibition of Pseudomonas aeruginosa MH602 LasR co-transfected with ASVgfp reporter assessed as inhibition of GFP production at 250 uM by fluorescence based analysis
[8] = molecular target: T2, HTH-type quorum-sensing regulator RhlR; experiment: Inhibition of Pseudomonas aeruginosa PAO1 RhlR co-transfected with LVAgfp reporter assessed as inhibition of GFP production measured after 12 to 24 hrs by fluorescence based analysis
[9] = molecular target: T1, Transcriptional activator protein LasR; experiment: Inhibition of Pseudomonas aeruginosa PAO1 LasR co-transfected with LVAgfp reporter assessed as inhibition of GFP production measured after 12 to 24 hrs by fluorescence based analysis

IC50 [1]: 1.4 µM | IC50 [2]: 399 µM | IC50 [3]: 2.3 µM | IC50 [4]: 285 µM
SMILES: Nc1nc2ccccc2[nH]1

inhibition [5]: 63.7% | inhibition [6]: 67.1% | inhibition [7]: 68.2%
SMILES: O=C(Cn1cc(-c2ccc([N+](=O)[O-])cc2)nn1)Nc1nc2ccccc2[nH]1

IC50 [8]: 12.5 µM | IC50 [9]: 37.5 µM
SMILES: Cc1cc2nc(N)[nH]c2cc1C
